Laboratory results taken from patent US20250019344A1, “CREATINE CARBONATE AND METHODS OF PRODUCTION AND USES” (ThermoLife International, LLC, priority 2023, published 2025).

Legend:
Type in all cases: in vivo, human
[1] = Knee extension exercise at 80% maximum weight after creatine supplementation; details: at end of supplementation, 20 g once per day with 1000 ml water; usual 6 extensions (control)
Excerpt: (§1) At the end on day 5, the subject was able to perform 8 knee extensions at 80% maximum weight (200 lbs.). This was 2 more than their usual 6 extensions with this weight (control). So, creatine supplementation with creatine monohydrate improved the subject's physical performance though with gastrointestinal side effects.
(§2) After a washout period of 14 days, where the subject ingested no creatine supplements, they began a second period of creatine supplementation with 20 g creatine carbonate, also taken once per day with 1000 ml water. […] At the end of the creatine supplementation with creatine carbonate, the subject again evaluated the effect of creatine supplementation with knee extension exercises at 80% maximum weight (200 lbs.). They performed 10 extensions, which was better than either the control or after 5 days of creatine monohydrate supplementation.

[2] = Gastrointestinal tolerability after oral creatine supplementation in a subject; details: for gastrointestinal side effects: 20 g once per day with 1000 ml of water, monohydrate for 5 consecutive days, carbonate after 14 days washout
Method: A subject, trained, was administered 5 g creatine carbonate and monitored for any gastrointestinal tract symptoms. […] In contrast, the subject would develop a bloated stomach with creatine supplements currently on the market.
as §1, §2

[3] = Blood lactate after treadmill exercise (Heartscare C1 lactate monitoring system); details: person; treadmill 5 miles per hour for 10 minutes, 60 minutes after ingesting 10 g; without supplement 8.1 mmol/L
Method: A recreationally active person used the treadmill at 5 miles per hour for 10 minutes and measured their lactate levels using a Heartscare C1 lactate monitoring system. Their blood lactate measured at 8.1 mmol/L. After a two-day washout period, they repeated the same treadmill exercise 60 minutes after ingesting 10 g creatine carbonate. Their blood lactate measured at 7.1 mmol/L. Thus, even without creatine loading, creatine carbonate can reduce lactate production from exercise, as measured by blood lactate level.

Row | SMILES | knee extensions performed at 80% maximum weight (200 lbs.) [1] | gastrointestinal side effects [2] | blood lactate [3] [mmol/L] | gastrointestinal tract symptoms ([2]; subject, trained, 5 g administered) | onset of gastrointestinal distress ([2]; up to 20 grams orally administered to subjects)
1 | CN(CC(=O)O)C(=N)N.O [creatine monohydrate, reference compound] | 8 | gastrointestinal disturbances, such as diarrhea and stomach bloating, occurred |  |  | 
2 | CN(CC(=O)O)C(=N)N.O=C(O)O [creatine carbonate] | 10 | Besides light belching, no other gastrointestinal side effects were noted | 7.1 | did not experience any unwanted gastrointestinal tract issues except a little belching | without onset of gastrointestinal distress
